For assay [1], the target named is T1, NK1R WT (human TACR1) (Homo sapiens, UniProt P25103).
T1 construct: host or cells: COS7 cells, transient calcium-precipitation transfection
In words: BRET-based cAMP assay (Gs activation), NK1R. The class given is cell-based.
Experimental: (§1) All receptor constructs of WT and modified human TACR1 and TACR2 were inserted into the pcDNA3.1(+)-C-DYK vector (Genscript) whereas CAMYEL ([34]) was expressed via pcDNA3.1(+) vector.
COS7 cells were maintained in Dulbecco's modified Eagle's medium 1885 with GlutaMAX supplemented with 10% fetal bovine serum (Sigma-Aldrich), 100 units/ml penicillin and 100 μg/ml streptomycin at 37 °C with 10% CO2. […] COS7 cells were plated in either clear- or white- or white with clear bottom 96-well plates that were coated with poly-D-lysine (Sigma-Aldrich) 30 min prior to cell seeding (20.000 cells/well). The following day plates were transiently transfected using calcium precipitation with 200 ng/well DNA of receptor DNA and for the cAMP assays a 1000 ng/well of CAMYEL in a culture medium with the addition of 100 μM (final concentration) chloroquine. Transfection was stopped 5 h later with the addition of a fresh maintenance medium.
(§2) The intracellular level of cAMP was monitored in real-time using BRET. This was achieved by implementing a construct consisting of a cAMP binding protein (exchange protein activated by cAMP (EPAC)) which has been flanked by a BRET pair consisting of Renilla luciferase (Rluc) and yellow fluorescent protein (YFP). This construct is called CAMYEL (cAMP sensor using YFP-Epac-Rluc) and enables cAMP production to be sensed as Epac change conformations in response to increasing levels of cAMP, ultimately resulting in a loss of BRET signal.
On the day of the assay, white 96-well plates with COS7 cells were washed twice with 100 μl/well Hank’s balanced salt solution (HBSS) (GIBCO, Life Technologies) and preincubated for 30 min at 37 °C with 85 μl HBSS. Luciferase substrate coelenterazine h (Thermo Fisher Scientific) was added to a final concentration of 5 μM, and a baseline measurement was taken after 5 min. […] The BRET signal was calculated as the ratio of emission intensity at 535 nm (citrine) to the emission intensity at 475 nm (luciferase). Determinations were made in minimum duplicates.
(§3) In both assay formats, the measurement window could shift between runs without affecting the overall curve shape. Emax and Emin values often shifted uniformly upward or downward, while the sigmoidal profile remained consistent, contributing to increased standard deviation.
All concentration-response curves have been calculated using Prism 10 software (GraphPad Software, www.graphpad.com) nonlinear regression with four parameters. SD is used for concentration-response curves to illustrate variability in experimental measurements. However, when comparing LogEC50 values, standard error of the mean (SEM) is used to reflect the precision of the estimated means and facilitate statistical comparisons. […] All data consist of two technical replicates from three biological replicates. Statistical significance of differences between LogEC50 values (based on SEM estimates) was assessed using an unpaired two-tailed t test. Normal distribution of LogEC50 values was confirmed by the Shapiro–Wilk test. p-Values were represented using asterisks: ns for p > 0.05 (not significant), ∗ for p ≤ 0.05, ∗∗ for p ≤ 0.01, ∗∗∗ for p ≤ 0.001, and ∗∗∗∗ for p ≤ 0.0001.

The target in assay [2] is T1, NK1R WT (human TACR1). Briefly: IP3 accumulation assay (Gq activation), NK1R. The class given is cell-based.
Experimental: (§4) COS7 cells were plated in either clear- or white- or white with clear bottom 96-well plates that were coated with poly-D-lysine (Sigma-Aldrich) 30 min prior to cell seeding (20.000 cells/well). The following day plates were transiently transfected using calcium precipitation with 200 ng/well DNA of receptor DNA and for the cAMP assays a 1000 ng/well of CAMYEL in a culture medium with the addition of 100 μM (final concentration) chloroquine. Transfection was stopped 5 h later with the addition of a fresh maintenance medium.
(§5) COS7 cells seeded in clear 96-well plates were incubated with 0.5 μCi/ml myo [3H]inositol (PerkinElmer) in 100 μl growth medium overnight following the transfection. The subsequent day cells were washed twice with 200 μl/well HBSS (GIBCO, Life Technologies) and preincubated for 5 min at 37 °C with 100 μl/well HBSS buffer supplemented with 10 mM LiCl. Ligand addition was followed by 90 min incubation at 37 °C. To stop ligand incubation, cells were lysed with 40 μl 10 mM formic acid followed by 30 min incubation on ice. Subsequently, 35 μl of the lysate was transferred to white 96-well plates together with 60 μl of 1:8 diluted YSi SPA scintillation beads (PerkinElmer). Plates were sealed and vigorously shaken for 15 min followed by 5 min centrifugation at 1500 rpm. Measurements (scintillation) were recorded on a MicroBeta (PerkinElmer) after a 4 h delay, and determinations were made in duplicates.
as §3
(§6) All concentration-response curves have been calculated using Prism 10 software (GraphPad Software, www.graphpad.com) nonlinear regression with four parameters. SD is used for concentration-response curves to illustrate variability in experimental measurements. However, when comparing LogEC50 values, standard error of the mean (SEM) is used to reflect the precision of the estimated means and facilitate statistical comparisons. This approach ensures an accurate representation of variability while maintaining appropriate statistical rigor for hypothesis testing. All data consist of two technical replicates from three biological replicates. Statistical significance of differences between LogEC50 values (based on SEM estimates) was assessed using an unpaired two-tailed t test. Normal distribution of LogEC50 values was confirmed by the Shapiro–Wilk test. p-Values were represented using asterisks: ns for p > 0.05 (not significant), ∗ for p ≤ 0.05, ∗∗ for p ≤ 0.01, ∗∗∗ for p ≤ 0.001, and ∗∗∗∗ for p ≤ 0.0001.
Assay [3] has as its target T2, NK2R WT (human TACR2) (Homo sapiens, UniProt P21452).
T2 construct: host or cells: COS7 cells, transient calcium-precipitation transfection
T2 sequence (P21452 1-398): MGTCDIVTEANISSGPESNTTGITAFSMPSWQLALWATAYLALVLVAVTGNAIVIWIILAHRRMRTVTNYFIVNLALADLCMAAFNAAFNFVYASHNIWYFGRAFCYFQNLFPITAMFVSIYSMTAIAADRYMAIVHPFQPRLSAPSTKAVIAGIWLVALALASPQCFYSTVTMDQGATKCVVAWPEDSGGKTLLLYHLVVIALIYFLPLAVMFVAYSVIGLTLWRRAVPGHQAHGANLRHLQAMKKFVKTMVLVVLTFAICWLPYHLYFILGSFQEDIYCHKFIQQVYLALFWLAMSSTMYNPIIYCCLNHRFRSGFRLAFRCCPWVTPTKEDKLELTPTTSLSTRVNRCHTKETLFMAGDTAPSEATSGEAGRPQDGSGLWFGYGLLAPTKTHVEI
In words: BRET-based cAMP assay (Gs activation), NK2R. It counts as cell-based. (In BRET a luciferase serves as donor, and the signal depends on an acceptor being close.)
Experimental: as §1
COS7 cells were tested monthly for mycoplasma and kept negative. COS7 cells were plated in either clear- or white- or white with clear bottom 96-well plates that were coated with poly-D-lysine (Sigma-Aldrich) 30 min prior to cell seeding (20.000 cells/well). The following day plates were transiently transfected using calcium precipitation with 200 ng/well DNA of receptor DNA and for the cAMP assays a 1000 ng/well of CAMYEL in a culture medium with the addition of 100 μM (final concentration) chloroquine. Transfection was stopped 5 h later with the addition of a fresh maintenance medium.
as §2
On the day of the assay, white 96-well plates with COS7 cells were washed twice with 100 μl/well Hank’s balanced salt solution (HBSS) (GIBCO, Life Technologies) and preincubated for 30 min at 37 °C with 85 μl HBSS. Luciferase substrate coelenterazine h (Thermo Fisher Scientific) was added to a final concentration of 5 μM, and a baseline measurement was taken after 5 min. […] Determinations were made in minimum duplicates.
as §3, §6

For assay [4], the target named is T2, NK2R WT (human TACR2). In words: IP3 accumulation assay (Gq activation), NK2R. It counts as cell-based.
Experimental: as §4, §5, §3, §6
Assay [5] deals with NK1R-R177 mutated to alanine. The note with it: NK1R-R177 to alanine vs WT; cited from earlier work.
In assay [6] the test system is NK1R-R177 mutated to lysine. The note with it: NK1R-R177 to lysine vs WT; cited from earlier work.
Assay [7] deals with NK1R-Q24 mutated to asparagine. The note with it: NK1R-Q24 to asparagine vs WT; cited from earlier work.
For assay [8], the system named is NK1R. The note with it: cited from earlier work.
In assay [9] the test system is NK1R. The conditions noted are these: cited from earlier work. This is another data set of the same source.
Where [10] appears, read: Fig. 2A, acetylated analogs, given as log(EC50), transfected COS7 cells, three independent experiments in duplicates.
[11] abbreviates: read-out: log(EC50), IP3 - NK1R WT (converted).
Setting [12] is: read-out: log(EC50), cAMP - NK1R WT (converted).
[13] abbreviates: Fig. 6A, given as log(EC50), transfected COS7 cells, three independent experiments in duplicates, read-out: log(EC50), cAMP - NK2R WT (converted).
Where [14] appears, read: Fig. 6B, given as log(EC50), transfected COS7 cells, three independent experiments in duplicates, read-out: log(EC50), IP3 - NK2R WT (converted).
[15] abbreviates: Fig. 2C, analogs with free N termini, given as log(EC50), transfected COS7 cells, three independent experiments in duplicates.
[16] abbreviates: Fig. 2D, analogs with free N termini, given as log(EC50), transfected COS7 cells, three independent experiments in duplicates.

Results on nine compounds are retold here after paper PMC12145819, “Challenging activity and signaling bias in tachykinin NK1 and NK2 receptors by truncated neuropeptides” (The Journal of Biological Chemistry, 2025).

No end group written: not given here.

T1 sequence (P25103 whole entry): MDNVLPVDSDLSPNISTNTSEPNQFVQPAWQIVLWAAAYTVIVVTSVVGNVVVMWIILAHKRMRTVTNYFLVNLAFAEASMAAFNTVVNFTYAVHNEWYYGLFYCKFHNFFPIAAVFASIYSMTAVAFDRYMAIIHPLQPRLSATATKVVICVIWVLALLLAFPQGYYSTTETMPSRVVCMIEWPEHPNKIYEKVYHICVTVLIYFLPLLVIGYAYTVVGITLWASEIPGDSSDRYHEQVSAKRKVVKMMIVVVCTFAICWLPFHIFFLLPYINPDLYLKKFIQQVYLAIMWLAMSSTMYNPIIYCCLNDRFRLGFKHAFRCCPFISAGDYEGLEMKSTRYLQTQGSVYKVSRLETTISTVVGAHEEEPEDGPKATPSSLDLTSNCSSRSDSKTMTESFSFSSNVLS

One may read the EC50 as the concentration needed to bring the measured effect to its halfway point. With Ac-QFFGLM-NH2 [Ac-QFFGLM-NH2], the EC50 on NK1R WT (human TACR1) [1] (setting [10]) was 3.98 nM; on NK1R WT (human TACR1) [2] (setting [11]) it was 1.58 nM. The “reduction in Gs potency” value at NK1R WT (human TACR1) [1] (NK1R, relative to SP) is 5.0 fold.
As to Ac-SFVGLM-NH2 [Ac-SFVGLM-NH2], the EC50 was 200 nM at NK1R WT (human TACR1) [1] (setting [12]), 7.94 nM at NK1R WT (human TACR1) [2] (setting [11]), 316 nM on NK2R WT (human TACR2) [3] (setting [13]) and 50.1 nM at NK2R WT (human TACR2) [4] (setting [14]).
As to `CSCC[C@H](NC(=O)[C@H](CC(C)C)NC(=O)CNC(=O)[C@H](Cc1ccccc1)NC(=O)[C@H](Cc1ccccc1)NC(=O)[C@H](CCC(N)=O)NC(=O)[C@H](CCC(N)=O)NC(=O)[C@@H]1CCCN1C(=O)[C@H](CCCCN)NC(=O)[C@@H]1CCCN1C(=O)[C@@H](N)CCCNC(=N)N)C(N)=O` [SP, substance P], the “reduction of binding affinity for SP (factor)” value in assay [5] is given as 46; in assay [6], 60; in [7], “five”.
With QQFFGLM-NH2 [QQFFGLM-NH2], the EC50 on NK1R WT (human TACR1) [1] (setting [15]) is 7.94 nM; on NK1R WT (human TACR1) [2] (setting [16]), 5.01 nM.
In the case of QFFGLM-NH2 [QFFGLM-NH2], the EC50 at NK1R WT (human TACR1) [1] (setting [15]) is 15.8 nM; at NK1R WT (human TACR1) [2] (setting [16]), 12.6 nM; at NK1R WT (human TACR1) [2] (Fig. 5A, Gq activation, given as log(EC50), transfected COS7 cells, three independent experiments in duplicates) it was 20 nM. On NK1R WT (human TACR1) [2] (NK1R, Fig. 5A, compared with acetylated analog and SP), the “lower Gq potency” value was found to be 15 fold. Besides, in the assay with NK1R [8], the “activity in IP3 accumulation assay (Gq) compared to SP” value was “half activity”. For the same compound, in the assay on NK1R [9], the “lower activity in BRET-based cAMP assay (Gs) compared to SP” value is given as 16 fold.
In the case of Ac-QQFFGLM-NH2 [Ac-QQFFGLM-NH2], the results for the EC50 on NK1R WT (human TACR1) [1] (setting [10]) and on NK1R WT (human TACR1) [2] (setting [11]) were 1.26 nM and 3.16 nM, respectively.
On to SFVGLM-NH2 [SFVGLM-NH2], for which the EC50 is 316 nM at NK1R WT (human TACR1) [1] (setting [12]), 50.1 nM at NK1R WT (human TACR1) [2] (setting [11]), 1580 nM at NK2R WT (human TACR2) [3] (setting [13]) and 200 nM on NK2R WT (human TACR2) [4] (setting [14]).
For `CSCC[C@H](NC(=O)[C@H](CC(C)C)NC(=O)CNC(=O)[C@@H](NC(=O)[C@H](Cc1ccccc1)NC(=O)[C@H](CO)NC(=O)[C@@H](N)CC(=O)O)C(C)C)C(N)=O` [DSFVGLM-NH2], the EC50 on NK2R WT (human TACR2) [3] and at NK2R WT (human TACR2) [4] was 10 nM each time. Moreover, the “increase in Gs potency compared to acetylated counterpart” value at NK2R WT (human TACR2) [3] (NK2R, Fig. 6A, analog with a free N terminal) is recorded as “five”.
With `CSCC[C@H](NC(=O)[C@H](CC(C)C)NC(=O)CNC(=O)[C@@H](NC(=O)[C@H](Cc1ccccc1)NC(=O)[C@H](CO)NC(=O)[C@H](CC(=O)O)NC(C)=O)C(C)C)C(N)=O` [Ac-DSFVGLM-NH2], the EC50 is 50.1 nM at NK2R WT (human TACR2) [3] (setting [13]) and 20 nM on NK2R WT (human TACR2) [4] (setting [14]).
